Molecules are shown by their SMILES.

In assay [1] the test system is 5×FAD+/− mice. In words: Learning and memory tests (Morris water maze, novel object recognition) in 5×FAD+/− mice. It is filed as in vivo, mouse. The following applies: for learning and memory impairments (MWM, NOR): 4-6 months old 5×FAD mice. On the procedure:
(§1) Adult genetically engineered mice, 5×FAD^+/− (Oakley et al., 2006), RyR2-E4872Q^+/− (EQ^+/−) (Chen et al., 2014), 5×FAD^+/−/RyR2-E4872Q^+/− (5×FAD^+/−/EQ^+/−), and wildtype (WT) littermates of both sexes were used. R-carvedilol (R-CV) (at doses of 0.8, 1.6 or 3.2 mg/kg/day), racemic carvedilol (3.2 mg/kg/day), and vehicle control (DMSO) were delivered to 5×FAD^+/− mice in drinking water for one month, starting at different ages before (2-3 months old) or after (3-4 months old) the occurrence of AD pathologies (Oakley et al., 2006). To assess the effects of genetically and pharmacologically limiting RyR2 open time on the prevention and rescue of AD deficits in different stages (early, moderate, and late) of AD progression, animals at different ages (from 2-15 months) were used. As reported (Oakley et al., 2006), there was an age-dependence of AD progression in the 5×FAD^+/− mice. No sex-dependent differences in AD progression in these mice was observed. For 2-photon Ca^2+ imaging experiments, 5×FAD, RyR2 WT, and RyR2 mutant mice were cross-bred with the heterozygous Thy1-GCaMP6f transgenic mice (Chen et al., 2012; Chen et al., 2013) (GP5.17, JAX 025393) to express the GCaMP6f Ca^2+ sensing probe (driven by the Thy1 promotor) in hippocampal neurons in each of the genotypes used.
The learning and memory of mice with all genotypes were evaluated using the Morris water maze (MWM) test, the Barnes maze (BM) test, and/or the novel object recognition (NOR) test. Experiments were carried out blindly. For the MWM test, mice at different ages were trained to localize a hidden escape platform (10×10 cm) in a circular pool (116.84 cm in diameter, 50 cm in depth) (San Diego Instruments, CA) via distal visual cue. The platform was submerged 1-2 cm beneath the surface in water (22-24°C.), which was rendered opaque by addition of milk powder. The localization of the pool in relation to visual cues was maintained constantly during the entire task. The cues were distinct in color and shape. Digital division of the tracking area (pool) into four quadrants was performed by the SMART video tracking system, Smart 3.0 (Panlab Harvard Apparatus; Barcelona Spain). The escape platform was placed in the centre of the south-west quadrant for the entirety of the learning phase (4 training days) and digitally defined as target. Spatial training consisted of 4 days with 5 trials per mouse per day. Mice were released with their heads facing the pool wall at one of four entry locations (north, east, south and west) in a non-repetitive random order. Swimming was automatically video-tracked until the subject found the escape platform and remained on it (≥5 sec), or until a maximum of 60 seconds. […] In between trials (inter-trial interval ≥10 min), mice were housed in heated cages to avoid performance deficits due to exhaustion or hypothermia. The latency and swimming speed to reach the escape platform were recorded for comparison. After the learning phase, memory retention was evaluated by one probe trial 24 hours after the last training session. The escape platform was removed before mice were released from the north entry point into the pool. Their swimming was video-tracked for 60 seconds. The area at the location of the removed hidden platform was defined as the target and the south-west quadrant the target quadrant. The percentage of time mice spent in the target quadrant (including the target) were measured for comparison.
For the NOR test, mice were habituated for 10 min per mouse in an equally illuminated, odor-free, white, plastic box (40×40×50 cm^3) embedded with fresh aspen shavings and shreds. In between each mouse trial the box was wiped with ethanol to avoid odor-induced stress. 24 hours after habituation, two identical objects ware placed at equal distance to each other and the corners of the box. Each mouse was placed into the center, and allowed to move freely for 10 min. Mice were video recorded during this familiarizing phase. […]

Assay [2] relates to subiculum pyramidal neurons of 5×FAD+/− mice. The assay can be described thus: Nissl staining, neuronal cell loss in 5×FAD+/− mice. The format is in vivo, mouse. To be noted: 6-7 months old 5×FAD+/− mice, pre-treatment 3.2 mg/kg/day for 1 month; vs DMSO. The method, then: as §1, with “genotypes used. […]” for “genotypes used.”

`COc1ccccc1OCCNC[C@@H](O)COc1cccc2[nH]c3ccccc3c12` [R-carvedilol, R-(+)-carvedilol]: the “learning and memory impairments (MWM, NOR)” value is on record as “rescued” in assay [1] (1.6 mg/kg/day for one month, vs DMSO) and “rescued” in assay [1] (3.2 mg/kg/day for one month, vs DMSO). In assay [1] (3.2 mg/kg/day for one month started at 2-3 months of age (before AD symptoms), tested at 3-4 months, vs DMSO), the “memory loss / learning and memory deficits (MWM, NOR)” value is given as “prevented”. Moreover, the “memory loss (MWM, NOR)” value in assay [1] (3.2 mg/kg/day for one month started at 3-4 months of age (after AD symptom), tested at 4-5 months, vs DMSO) was “rescued”. Besides, in assay [1] (0.8, 1.6, 3.2 mg/kg/day for one month, 5×FAD mice), the “beneficial effect on learning and memory, dependence on dose” value was “dose-dependent”. Besides, the “memory deficits (MWM, NOR)” value in assay [1] (6-7 and 10-12 months old 5×FAD+/− mice (late stages of AD), 3.2 mg/kg/day for 1 month, vs DMSO) is on record as “rescued”. Further, the “subiculum neuronal cell loss” value in assay [2] was “protected against”.

These data come from patent US20230381139A1, “METHODS OF TREATING AND/OR PREVENTING ALZHEIMER’S DISEASE WITH R-CARVEDILOL” (priority 2020, published 2023).
